Measurements published in patent publication US8853196B2, “Aminochromane, aminothiochromane and amino-1,2,3,4-tetrahydroquinoline derivatives, pharmaceutical compositions containing them, and their use in therapy” (AbbVie Deutschland GmbH & Co. KG, priority 2011, dated 2014).
pKi: −log10 of the molar value. Counter-ions that a name gives are not always drawn.

molecular target: T1, human GlyT1c transporter (Homo sapiens, UniProt P48067); assay: Radioligand binding assay using recombinant CHO cell membranes expressing human GlyT1; details: values given as upper bounds, read-out: radioligand binding Kiapp
T1 construct: expressed in transfected cells; host or cells: CHO cells (recombinant; membranes)
T1 sequence (P48067 1-706): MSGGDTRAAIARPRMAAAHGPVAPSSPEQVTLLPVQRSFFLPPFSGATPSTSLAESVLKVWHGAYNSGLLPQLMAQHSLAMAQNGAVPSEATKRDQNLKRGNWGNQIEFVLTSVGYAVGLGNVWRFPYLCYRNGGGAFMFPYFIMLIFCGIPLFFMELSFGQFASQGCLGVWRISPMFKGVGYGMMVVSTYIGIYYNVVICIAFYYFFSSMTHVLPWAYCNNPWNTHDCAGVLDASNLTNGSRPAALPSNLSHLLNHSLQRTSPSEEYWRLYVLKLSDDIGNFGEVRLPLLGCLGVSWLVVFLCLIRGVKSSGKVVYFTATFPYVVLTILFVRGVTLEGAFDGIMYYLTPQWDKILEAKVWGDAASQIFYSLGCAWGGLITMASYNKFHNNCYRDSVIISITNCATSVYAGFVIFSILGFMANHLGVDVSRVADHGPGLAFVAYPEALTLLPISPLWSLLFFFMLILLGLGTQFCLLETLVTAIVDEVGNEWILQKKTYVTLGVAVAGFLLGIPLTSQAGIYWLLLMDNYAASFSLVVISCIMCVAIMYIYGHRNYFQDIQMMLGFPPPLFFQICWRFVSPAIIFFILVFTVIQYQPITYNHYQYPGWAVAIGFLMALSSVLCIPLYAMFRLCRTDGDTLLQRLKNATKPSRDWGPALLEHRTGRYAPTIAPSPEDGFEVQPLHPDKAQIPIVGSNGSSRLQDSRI
Experimental: 2. Radioligand Binding Assays Using Recombinant CHO Cell Membranes Expressing Human GlyT1:
Radioligand binding to human GlyT1c transporter-expressing membranes was determined as described in Mezler et al., Molecular Pharmacology 74:1705-1715, 2008.

Compound	pKi
CN[C@@H]1COc2ccc(OCCNS(=O)(=O)c3cnn(C)c3)cc2[C@@H]1Cc1ccccc1 (relative stereo) [Example 1a, cis-N-(2-{[4-Benzyl-3-(methylamino)-3,4-dihydro-2H-chromen-6-yl]oxy}ethyl)-1-methyl-1H-pyrazole-4-sulfonamide hydrochloride]	≥ 8.00
CN[C@@H]1COc2ccc(OCCNS(=O)(=O)c3cnn(C)c3)cc2[C@H]1Cc1ccccc1 (relative stereo) [Example 1b, trans-N-(2-{[-4-benzyl-3-(methylamino)-3,4-dihydro-2H-chromen-6-yl]oxy}ethyl)-1-methyl-1H-pyrazole-4-sulfonamide hydrochloride]	≥ 8.00
CN[C@@H]1COc2ccc(OCCNS(=O)(=O)c3cn(C)cn3)cc2[C@@H]1Cc1ccccc1 (relative stereo) [Example 2a, cis-N-(2-{[-4-Benzyl-3-(methylamino)-3,4-dihydro-2H-chromen-6-yl]oxy}ethyl)-1-methyl-1H-imidazole-4-sulfonamide]	≥ 8.00
CN[C@@H]1COc2ccc(OCCNS(=O)(=O)c3cn(C)cn3)cc2[C@H]1Cc1ccccc1 (relative stereo) [Example 2b, trans-N-(2-{[-4-benzyl-3-(methylamino)-3,4-dihydro-2H-chromen-6-yl]oxy}ethyl)-1-methyl-1H-imidazole-4-sulfonamide]	≥ 8.00
CCCS(=O)(=O)NCCOc1ccc2c(c1)[C@H](Cc1ccccc1)[C@H](NC)CO2 (relative stereo) [Example 3a, cis-N-(2-{[-4-Benzyl-3-(methylamino)-3,4-dihydro-2H-chromen-6-yl]oxy}ethyl)propane-1-sulfonamide]	≥ 7.00
CCCS(=O)(=O)NCCOc1ccc2c(c1)[C@@H](Cc1ccccc1)[C@H](NC)CO2 (relative stereo) [Example 3b, trans-N-(2-{[-4-benzyl-3-(methylamino)-3,4-dihydro-2H-chromen-6-yl]oxy}ethyl)propane-1-sulfonamide]	≥ 6.00
CN[C@@H]1COc2ccc(OCCNS(=O)(=O)CC3CC3)cc2[C@@H]1Cc1ccccc1 (relative stereo) [Example 4a, cis-N-(2-{[-4-Benzyl-3-(methylamino)-3,4-dihydro-2H-chromen-6-yl]oxy}ethyl)-1-cyclopropylmethanesulfonamide]	≥ 8.00
CN[C@@H]1COc2ccc(OCCNS(=O)(=O)CC3CC3)cc2[C@H]1Cc1ccccc1 (relative stereo) [Example 4b, trans-N-(2-{[-4-benzyl-3-(methylamino)-3,4-dihydro-2H-chromen-6-yl]oxy}ethyl)-1-cyclopropylmethanesulfonamide]	≥ 7.00
CN[C@@H]1COc2ccc(CNS(=O)(=O)c3cn(C)cn3)cc2[C@@H]1Cc1ccccc1 (relative stereo) [Example 5a, cis-1-Methyl-1H-imidazole-4-sulfonic acid (4-benzyl-3-methylamino-chroman-6-ylmethyl)-amide]	≥ 8.00
CN[C@@H]1COc2ccc(CNS(=O)(=O)c3cn(C)cn3)cc2[C@H]1Cc1ccccc1 (relative stereo) [Example 5b, trans-1-Methyl-1H-imidazole-4-sulfonic acid (4-benzyl-3-methylamino-chroman-6-ylmethyl)-amide]	≥ 8.00
CN[C@@H]1COc2ccc(CNS(=O)(=O)c3cnn(C)c3)cc2[C@@H]1Cc1ccccc1 (relative stereo) [Example 6a, cis-N-{[4-benzyl-3-(methylamino)-3,4-dihydro-2H-chromen-6-yl]methyl}-1-methyl-1H-pyrazole-4-sulfonamide]	≥ 8.00
CN[C@@H]1COc2ccc(CNS(=O)(=O)c3cnn(C)c3)cc2[C@H]1Cc1ccccc1 (relative stereo) [Example 6b, trans-N-{[-4-benzyl-3-(methylamino)-3,4-dihydro-2H-chromen-6-yl]methyl}-1-methyl-1H-pyrazole-4-sulfonamide]	≥ 8.00
CCCS(=O)(=O)NCc1ccc2c(c1)[C@H](Cc1ccccc1)[C@H](NC)CO2 (relative stereo) [Example 7a, cis-N-{[4-Benzyl-3-(methylamino)-3,4-dihydro-2H-chromen-6-yl]methyl}propane-1-sulfonamide]	≥ 8.00
CCCS(=O)(=O)NCc1ccc2c(c1)[C@@H](Cc1ccccc1)[C@H](NC)CO2 (relative stereo) [Example 7b, trans-N-{[4-benzyl-3-(methylamino)-3,4-dihydro-2H-chromen-6-yl]methyl}propane-1-sulfonamide]	≥ 7.00
CN[C@@H]1COc2ccc(CNS(=O)(=O)CC3CC3)cc2[C@@H]1Cc1ccccc1 (relative stereo) [Example 8a, cis-N-{[4-Benzyl-3-(methylamino)-3,4-dihydro-2H-chromen-6-yl]methyl}-1-cyclopropylmethanesulfonamide]	≥ 8.00
CN[C@@H]1COc2ccc(CNS(=O)(=O)CC3CC3)cc2[C@H]1Cc1ccccc1 (relative stereo) [Example 8b, trans-N-{[4-benzyl-3-(methylamino)-3,4-dihydro-2H-chromen-6-yl]methyl}-1-cyclopropylmethanesulfonamide]	≥ 7.00
CCS(=O)(=O)NCc1ccc2c(c1)[C@H](Cc1ccccc1)[C@H](NC)CO2 (relative stereo) [Example 9a, cis-N-{[4-Benzyl-3-(methylamino)-3,4-dihydro-2H-chromen-6-yl]methyl}ethanesulfonamide]	≥ 7.00
CCS(=O)(=O)NCc1ccc2c(c1)[C@@H](Cc1ccccc1)[C@H](NC)CO2 (relative stereo) [Example 9b, trans-N-{[4-benzyl-3-(methylamino)-3,4-dihydro-2H-chromen-6-yl]methyl}ethanesulfonamide]	≥ 6.00
Cn1cnc(S(=O)(=O)NCCOc2ccc3c(c2)[C@H](Cc2ccccc2)[C@H](N2CCC2)CO3)c1 (relative stereo) [Example 10, cis-1-Methyl-1H-imidazole-4-sulfonic acid [2-(3-azetidin-1-yl-4-benzyl-chroman-6-yloxy)-ethyl]-amide]	≥ 8.00
O=S(=O)(CC1CC1)NCCOc1ccc2c(c1)[C@H](Cc1ccccc1)[C@H](N1CCC1)CO2 (relative stereo) [Example 11, cis-N-[2-(3-Azetidin-1-yl-4-benzyl-chroman-6-yloxy)-ethyl]-C-cyclopropyl-methanesulfonamide]	≥ 6.00
Cn1cnc(S(=O)(=O)NCc2ccc3c(c2)[C@H](Cc2ccccc2)[C@H](N)CO3)c1 (relative stereo) [Example 12, cis-1-Methyl-1H-imidazole 4-sulfonic acid (3-amino-4-benzyl-chroman-6-ylmethyl)-amide]	≥ 8.00
Cn1cnc(S(=O)(=O)NCc2ccc3c(c2)[C@@H](Cc2ccccc2)[C@H](N)CO3)c1 (relative stereo) [Example 13, trans-1-Methyl-1H-imidazole-4-sulfonic acid (3-amino-4-benzyl-chroman-6-ylmethyl)-amide]	≥ 8.00
CCCS(=O)(=O)NCCOc1ccc2c(c1)[C@H](Cc1ccccc1)[C@H](N1CCC1)CO2 (relative stereo) [Example 14, cis-Propane-1-sulfonic acid [2-(3-azetidin-1-yl-4-benzyl-chroman-6-yloxy)-ethyl]-amide; trifluoro-acetic acid salt]	≥ 7.00
Cn1cc(S(=O)(=O)NCc2ccc3c(c2)[C@H](Cc2ccccc2)[C@H](N2CCC2)CO3)cn1 (relative stereo) [Example 15, cis-1-Methyl-1H-pyrazole-4-sulfonic acid (3-azetidin-1-yl-4-benzyl-chroman-6-ylmethyl)-amide]	≥ 8.00
Cn1cc(S(=O)(=O)NCCOc2ccc3c(c2)[C@H](Cc2ccccc2)[C@H](N2CCC2)CO3)cn1 (relative stereo) [Example 16, cis-1-Methyl-1H-pyrazole-4-sulfonic acid [2-(3-azetidin-1-yl-4-benzyl-chroman-6-yloxy)-ethyl]-amide]	≥ 8.00
CCS(=O)(=O)NCCOc1ccc2c(c1)[C@H](Cc1ccccc1)[C@H](N1CCC1)CO2 (relative stereo) [Example 18, cis-Ethanesulfonic acid [2-(3-azetidin-1-yl-4-benzyl-chroman-6-yloxy)-ethyl]-amide]	≥ 7.00
Cn1cnc(S(=O)(=O)NCc2ccc3c(c2)[C@@H](Cc2ccccc2)[C@@H](NCC2CCCCC2)CO3)c1 (relative stereo) [Example 22, cis-1-Methyl-1H-imidazole-4-sulfonic acid [4-benzyl-3-(cyclohexylmethyl-amino)-chroman-6-lmethyl]-amide; trifluoro-acetic acid salt]	≥ 8.00
CCS(=O)(=O)NCc1ccc2c(c1)[C@H](Cc1ccccc1)[C@H](N)CO2 (relative stereo) [Example 23, cis-Ethanesulfonic acid (3-amino-4-benzyl-chroman-6-ylmethyl)-amide]	≥ 7.00
CCS(=O)(=O)NCc1ccc2c(c1)[C@@H](Cc1ccccc1)[C@H](N)CO2 (relative stereo) [Example 24, trans-Ethanesulfonic acid (3-amino-4-benzyl-chroman-6-ylmethyl)-amide]	≥ 7.00
